Measured values published in patent US6844004B2, “Topical formulations of natamycin/pimaricin” (Board of Regents, The University of Texas System, priority 1997, dated 2005).
≈ marks a conversion by molar mass, not a printed value.

Assays:
[1] = surface in contact with AMB; cited from earlier work
[2] = tested on: tested strains of Candida spp.; experiment: Antifungal sensitivity (MIC); assay type: cell-based; settings: all tested strains of Candida spp.
Protocol: (§1) Methodology. The antifungal activity of Natamycin was compared with that of amphotericin B utilizing a previously described assay (Anaissie et al., 1991). Briefly, serial dilutions of Natamycin and AMB were mixed in RPMI growth medium with L-glutamine and MOPS-buffer, pH 7.0 (Sigma Chemical Co., St. Louis, Mo.). The different strains of Candida, Aspergillus and Fusarium spp. were then added to the dishes. After incubation at 35° C. for 48 to 72 hours the plates were evaluated for fungal proliferation. The used fungal strains were obtained from the ATCC or isolated from patients, primarily at the MD Anderson Cancer Center. The Natamycin concentrations in the used solutions were assayed with HPLC to assure the highest possible reproducibility of the drug concentrations.

[3] = tested on: tested strains of Fusarium; experiment: Antifungal sensitivity (MIC); assay type: cell-based; settings: all tested strains of Fusarium
Protocol: as §1

[4] = tested on: Aspergillus strains, except for A. flavus; experiment: Antifungal sensitivity (MIC); assay type: cell-based; settings: all Aspergillus strains except A. flavus
Protocol: as §1

A. flavus = experiment: Antifungal sensitivity (MIC); assay type: cell-based; settings: Aspergillus flavus; the tested A. flavus
Protocol: as §1

[5] = assay type: physicochemical
Protocol: Stability of the various Natamycin formulations. To study the physical and chemical stability of the various parenteral formulations, three sets of studies were performed: • (a) Natamycin was dissolved at a concentration of 100-300 mg/ml in HAc (“stock solution”) and incubated at 4° C., at 22° C. and at 40° C. The drug concentration was analyzed by HPLC in samples taken immediately after solubilization and after gradually increasing time intervals of up to 48 hours. • (b) The Natamycin-HAc stock solution was diluted with PEG/water (1:1:1, v:v:v, HAc:PEG:water), or PG/DMSO (1:1:1, v:v:v), or PG/DMSO/PEG (1:1:1:1, v:v:v:v), or aqueous lipid emulsion (1:10 and 1:100, v:v, HAc:Intralipid™), to yield Natamycin concentrations ranging from 1-50 mg/ml. • (c) The HAc-Natamycin mixture was diluted in NS or 5% dextrose to a drug concentration of 1 mg/ml. (d) The HAc-Natamycin mixture was blended with DMSO and Intralipid™, or directly in Intralipid™.
The various formulations were analyzed by HPLC immediately after mixing, then hourly for 8 hours, and then at gradually increasing time intervals up to several weeks, depending on the rate of degradation in the respective solvent system.
The temperature-dependent stability of solubilized Natamycin in the different solvent systems was studied as follows: The drug was dissolved in HAc at 100 mg/ml, and different aliquots were stored at 4° C., at 22° C., and at 40° C. Immediately after solubilization and at various intervals up to 48 hours later, aliquots from the different samples were analyzed by HPLC. The drug samples stored at 4° C. and at 22° C. degraded slower than those stored at higher temperatures: at 40° C. the Natamycin started degrading within 1 hour after the start of incubation, and at RT there was a loss of 5-10% in the first 4 hours.

physchem = assay type: physicochemical; settings: 22 °C, organic solvent or mixture, thermodynamic from solid
Protocol: Natamycin solubility was determined in several individual vehicles (see Table I). Briefly, a known amount of the drug, as a powder (different lots of purified drug were obtained from Gist-Brocades N.V., Netherlands, and from Sigma Chemical Company, St Louis, Mo.), was equilibrated in the respective solvent at RT (22° C.) over 5 min to 4 hours. An aliquot was then removed and diluted in MeOH prior to HPLC at predetermined times. Based on the Natamycin solubility in these particular vehicles, the inventors attempted to enhance the solubility by mixing different solvents according to the principle of cosolvency (Spiegel and Noseworthy, 1963; Yalkowsky and Roseman, 1981). Several different solvent systems were evaluated relative to the above estimates of necessary solubility to arrive at a clinically relevant optimal stock formulation. […] The “final solvent” is preferably one of the commonly available ointment bases, such as petroleum jelly, cocoa butter, Aquaphor™, all of which are readily available and commonly used for topical administration, either for moisturizing purpose or for dissolving various chemically active compounds.
Solubility Studies. […] Samples of 1 ml were taken at various time intervals, and filtered through a 0.45 μm PTFE™ membrane filter fitted to a syringe assembly (Whatman Inc.), and after appropriate dilution, the Natamycin concentration was determined by HPLC.

Row | Structure (SMILES) | inflammation of the mucosal surface, share of treated subjects [1] [%] | MIC (sensitive in the range) [2] [µg/mL] | MIC (sensitive in the range) [3] [µg/mL] | MIC [4] [µg/mL] | MIC (A. flavus) [µg/mL] | loss of drug (degradation) ([5]; 100 mg/ml) | time to start of degradation ([5]; 100 mg/ml) [h] | time until degradation apparent ([5]; 100 mg/ml) [h] | time stable (by HPLC) ([5]; HAc and DMSO primary solvent, Intralipid, lyophilized, reconstituted to 10 mg/ml with distilled water, RT) | time stable ([5]; HAc-Natamycin stock diluted with 20% Intralipid to 10-50 mg/ml) | solubility thermodynamic (physchem) [mg/mL]
1 | C[C@@H]1[C@H](O)[C@@H](C)/C=C/C=C/C=C/C=C/C=C/C=C/C=C/[C@H](O[C@@H]2O[C@H](C)[C@@H](O)[C@H](N)[C@@H]2O)C[C@@H]2O[C@](O)(C[C@@H](O)C[C@@H](O)[C@H](O)CC[C@@H](O)C[C@@H](O)CC(=O)O[C@H]1C)C[C@H](O)[C@H]2C(=O)O [AMB, Amphotericin B] | > 75 |  |  |  |  |  |  |  |  |  | 
2 | C[C@@H]1C/C=C/C=C/C=C/C=C/[C@H](O[C@@H]2O[C@H](C)[C@@H](O)[C@H](N)[C@@H]2O)C[C@@H]2O[C@](O)(C[C@@H](O)C[C@H]3O[C@@H]3/C=C/C(=O)O1)C[C@H](O)[C@H]2C(=O)O [Natamycin, Pimaricin] |  | 2 to 4 | 2 to 4 | 2 to 4 (≈ 3 to 6.01 µM) | 16 (≈ 24 µM) | 5-10% | ≤ 1 | 8 to 12 | more than 24 hours | more than 6 weeks | > 100
